Reference: ChEMBL document CHEMBL5113402, “Inhibition of cytochrome P450 monooxygenase-catalyzed oxylipin formation by flavonoids: Evaluation of structure-activity relationship towards CYP4F2-selective inhibitors” (Eur J Med Chem, 2022)

What was measured:
[1] = target: CYP450 (EpETrE formation) (Homo sapiens, UniProt P04798+P05177+P05181+P08684+P10632+P10635+P11509+P11712+P13584+P20813+P20815+P20853+P24462+P24903+P33260+P33261+P51589+P78329+P98187+Q02928+Q08477+Q16678+Q16696+Q5TCH4+Q6VVX0+Q7Z449+Q8TAV3+Q96SQ9+Q9HB55); experiment: Inhibition of CYP450 in human liver microsomes assessed as inhibition of EpETrE formation at 10 uM in presence of arachidonic acid and NADPH by multi-enzyme assay based LC-MS/MS analysis relative to control; assay type: ADME, Microsome; conditions: probe arachidonic acid
[2] = target: T1, CYP450 (20-HETE formation) (Homo sapiens, UniProt P04798+P05177+P05181+P08684+P10632+P10635+P11509+P11712+P13584+P20813+P20815+P20853+P24462+P24903+P33260+P33261+P51589+P78329+P98187+Q02928+Q08477+Q16678+Q16696+Q5TCH4+Q6VVX0+Q7Z449+Q8TAV3+Q96SQ9+Q9HB55); experiment: Inhibition of CYP450 in human HCT-116 cells assessed as 20-HETE formation in presence of arachidonic acid incubated for 15 mins by multi-enzyme assay based LC-MS/MS analysis relative to control; assay type: ADME, cell-based; conditions: probe arachidonic acid
[3] = Drug recovery in human liver microsomes assessed as NADPH-fortified oxidative metabolism recovery in presence of arachidonic acid incubated for 30 mins; assay type: ADME, Microsome; conditions: read-out: Drug recovery
[4] = target: T1, CYP450 (20-HETE formation); experiment: Inhibition of CYP450 in human HCT-116 cells assessed as 20-HETE formation in presence of arachidonic acid incubated for 15 mins by multi-enzyme assay based LC-MS/MS analysis; assay type: ADME, cell-based; conditions: probe arachidonic acid
Cytochrome P450 4F2 = target: T2, Cytochrome P450 4F2 (Homo sapiens, UniProt P78329); experiment: Inhibition of recombinant human CYP4F2 expressed in baculovirus-infected insect cells in presence of arachidonic acid and NADPH incubated for 15 mins by jump-dilution assay relative to control; assay type: ADME
T2 sequence (P78329 whole entry): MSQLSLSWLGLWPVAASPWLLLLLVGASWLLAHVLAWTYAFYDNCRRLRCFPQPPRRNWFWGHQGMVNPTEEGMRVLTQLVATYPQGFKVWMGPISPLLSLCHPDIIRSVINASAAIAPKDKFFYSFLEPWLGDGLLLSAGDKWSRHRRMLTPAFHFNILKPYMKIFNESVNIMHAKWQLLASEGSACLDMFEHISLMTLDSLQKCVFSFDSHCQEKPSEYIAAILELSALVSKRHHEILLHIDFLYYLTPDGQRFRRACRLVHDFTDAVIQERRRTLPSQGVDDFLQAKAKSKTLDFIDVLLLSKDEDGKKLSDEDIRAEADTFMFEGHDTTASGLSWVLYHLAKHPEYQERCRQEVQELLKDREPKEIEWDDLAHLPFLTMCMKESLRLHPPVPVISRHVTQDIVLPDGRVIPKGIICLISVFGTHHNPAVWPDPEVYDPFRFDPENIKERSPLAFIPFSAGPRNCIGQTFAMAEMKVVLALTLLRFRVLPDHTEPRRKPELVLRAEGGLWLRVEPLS

[5] = Drug recovery in human liver microsomes assessed as UDPGA-fortified conjugation recovery in presence of arachidonic acid incubated for 30 mins; assay type: ADME, Microsome; conditions: read-out: Drug recovery
[6] = target: T1, CYP450 (20-HETE formation); experiment: Inhibition of CYP450 in human liver microsomes assessed as inhibition of 20-HETE formation at 10 uM in presence of arachidonic acid and NADPH by multi-enzyme assay based LC-MS/MS analysis relative to control; assay type: ADME, Microsome; conditions: probe arachidonic acid
[7] = Apparent permeability of the compound in human Caco-2 cells; assay type: ADME, cell-based
[8] = target: T1, CYP450 (20-HETE formation); experiment: Inhibition of CYP450 in human liver microsomes assessed as inhibition of 20-HETE formation in presence of arachidonic acid and NADPH by multi-enzyme assay based LC-MS/MS analysis; assay type: ADME, Microsome; conditions: probe arachidonic acid

With O=c1cc(-c2ccc(C(F)(F)F)cc2)oc2ccccc12 the inhibition at 10 µM [1] was less than 15%, the IC50 at 15 min [2] was 1.9 µM and the remaining at 0.5 h [3] was 87%. It also gave an IC50 at 15 min [4] of 1.1 µM, an IC50 (Cytochrome P450 4F2) of 0.76 µM and a remaining at 0.5 h [5] greater than 95%. For the same compound, the inhibition at 10 µM [6] was 53%, the Papp [7] was 4.1 ×10⁻⁶ cm/s and the IC50 [8] was 4.9 µM.
